Our source for the IC50 values is PMC8555766, “Paradoxical Potentiation of Acid-Sensing Ion Channel 3 (ASIC3) by Amiloride via Multiple Mechanisms and Sites Within the Channel” (Frontiers in Physiology, 2021).

One test addresses T1, ASIC3 G445C (Rattus norvegicus, UniProt O35240, G445C).
T1 construct: rASIC3 G445C co-expressed with wildtype ASIC3 at a 10:1 ratio in CHO-K1 cells; with wildtype ASIC3 (heteromultimeric channels)
T1 sequence (O35240 1-533 G445C): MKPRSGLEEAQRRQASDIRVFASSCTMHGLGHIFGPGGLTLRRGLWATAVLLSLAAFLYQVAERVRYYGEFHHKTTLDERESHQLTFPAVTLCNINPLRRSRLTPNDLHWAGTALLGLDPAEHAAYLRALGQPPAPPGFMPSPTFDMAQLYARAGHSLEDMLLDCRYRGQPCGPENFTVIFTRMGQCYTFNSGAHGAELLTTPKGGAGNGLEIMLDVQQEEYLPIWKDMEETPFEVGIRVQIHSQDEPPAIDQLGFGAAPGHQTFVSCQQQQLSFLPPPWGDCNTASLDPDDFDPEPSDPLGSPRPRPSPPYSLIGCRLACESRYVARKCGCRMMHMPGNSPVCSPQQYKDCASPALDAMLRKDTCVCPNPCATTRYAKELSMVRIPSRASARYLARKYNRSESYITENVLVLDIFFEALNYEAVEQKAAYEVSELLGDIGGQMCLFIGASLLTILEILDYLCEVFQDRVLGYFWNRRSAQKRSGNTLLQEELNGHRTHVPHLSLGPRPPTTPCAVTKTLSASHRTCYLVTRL
Put plainly: whole-cell patch clamp, block of pH 6-evoked currents. The test is classed as cell-based. The source says:
whole-cell patch clamp, block of pH 6-evoked currents on ASIC3 G445C | G445C mutation partially blunted the inhibitory action of amiloride on ASIC3 currents when compared to wildtype ASIC3 channels

For test [1], the target named is T2, Acid-Sensing Ion Channel 3 (ASIC3) (Rattus norvegicus, UniProt O35240).
T2 construct: Rat ASIC3 in pMT3 vector, expressed in CHO-K1 cells
T2 sequence (O35240 1-533): T1 sequence (O35240 1-533 G445C) with C445G
The test is described as above. It is filed as cell-based.

Residue numbers refer to the chain shown, from its start.

Consider `N=C(N)NC(=O)c1nc(Cl)c(N)nc1N` [amiloride], for which the IC50 against ASIC3 G445C came to 17.3 µM; in test [1] it was 18.6 µM.
